From ChEMBL document CHEMBL4130359, “Indazole-based ligands for estrogen-related receptor α as potential anti-diabetic agents” (Eur J Med Chem, 2017)

Assays:
Rattus norvegicus [1] = assay: Toxicity in […] model assessed as serum BUN level at 10 mg/kg, po qd for 31 days measured on day 32 (reference value: 28.3 +/- […]); type: organism-based; settings: in vivo, 744 h
Rattus norvegicus [2] = assay: Toxicity in […] model assessed as serum cholesterol level at 10 mg/kg, po qd for 31 days measured on day 32 (reference value: 195 +/- 5.5 mg/dl); type: organism-based; settings: in vivo, 744 h
Rattus norvegicus [3] = assay: Toxicity in Zucker rat sub-chronic fa/fa prediabetic model assessed as liver weight at 10 mg/kg, po qd for 31 days measured on day 32 (reference value: 28 +/- 1.6 g); type: organism-based; settings: in vivo, 744 h
Rattus norvegicus [4] = assay: Toxicity in Zucker rat sub-chronic fa/fa prediabetic model assessed as body weight at 10 mg/kg, po qd for 29 days measured on day 29 post last dose (reference value: 533 +/- 10 g); type: organism-based; settings: in vivo, 696 h
Rattus norvegicus [5] = assay: Toxicity in Zucker rat sub-chronic fa/fa prediabetic model assessed as serum triglyceride level at 10 mg/kg, po qd for 31 days measured on day 32 (reference value: 1382 +/- 268 mg/dl); type: organism-based; settings: in vivo, 744 h
Rattus norvegicus [6] = assay: Toxicity in Zucker rat sub-chronic fa/fa prediabetic model assessed as brown adipose tissue weight at 10 mg/kg, po qd for 31 days measured on day 32 (reference value: 2.1 +/- 0.3 g); type: organism-based; settings: in vivo, 744 h
Rattus norvegicus [7] = assay: Toxicity in Zucker rat sub-chronic fa/fa prediabetic model assessed as change in body weight at 10 mg/kg, po qd for 29 days measured on day 1 to 29 during compound dosing (reference value: 140 +/- 7 g); type: organism-based; settings: in vivo, 696 h
Rattus norvegicus [8] = assay: Toxicity in Zucker rat sub-chronic fa/fa prediabetic model assessed as serum creatinine level at 10 mg/kg, po qd for 31 days measured on day 32 (reference value: 0.71 +/- 0.07 mg/dl); type: organism-based; settings: in vivo, 744 h
Rattus norvegicus [9] = assay: Toxicity in Zucker rat sub-chronic fa/fa prediabetic model assessed as epididymal white adipose tissue weight at 10 mg/kg, po qd for 31 days measured on day 32 (reference value: 13.9 +/- 0.6 g); type: organism-based; settings: in vivo, 744 h
Rattus norvegicus [10] = assay: Toxicity in […] chronic ob/ob model assessed as body weight at 10 mg/kg, po qd for 28 days measured on day 28 post last dose (reference value: 47.3 +/- 1.06 g); type: organism-based; settings: in vivo, 672 h
Rattus norvegicus [11] = assay: Toxicity in Zucker rat sub-chronic fa/fa prediabetic model assessed as serum BUN level at 10 mg/kg, po qd for 31 days measured on day 32 (reference value: 28.3 +/- […]); type: organism-based; settings: in vivo, 744 h
Rattus norvegicus [12] = assay: Toxicity in […] chronic ob/ob model assessed as brown adipose tissue weight at 10 mg/kg, po qd for 31 days measured on day 32 (reference value: 0.59 +/- 0.05 g); type: organism-based; settings: in vivo, 744 h
Rattus norvegicus [13] = assay: Toxicity in Zucker rat sub-chronic fa/fa prediabetic model assessed as serum cholesterol level at 10 mg/kg, po qd for 31 days measured on day 32 (reference value: 295 +/- 91 mg/dl); type: organism-based; settings: in vivo, 744 h
Rattus norvegicus [14] = assay: Toxicity in […] chronic ob/ob model assessed as epididymal white adipose tissue weight at 10 mg/kg, po qd for 31 days measured on day 32 (reference value: 3.92 +/- 0.14 g); type: organism-based; settings: in vivo, 744 h
Rattus norvegicus [15] = assay: Toxicity in […] chronic ob/ob model assessed as food intake at 10 mg/kg, po qd for 28 days measured on day 1 to 28 during compound dosing (reference value: 170.6 +/- 3 g); type: organism-based; settings: in vivo, 672 h
Rattus norvegicus [16] = assay: Toxicity in […] chronic ob/ob model assessed as serum triglyceride level at 10 mg/kg, po qd for 31 days measured on day 32 (reference value: 329 +/- 36 mg/dl); type: organism-based; settings: in vivo, 744 h
Rattus norvegicus [17] = assay: Toxicity in […] model assessed as liver weight at 10 mg/kg, po qd for 31 days measured on day 32 (reference value: 2.77 +/- 0.16 g); type: organism-based; settings: in vivo, 744 h
Rattus norvegicus [18] = assay: Toxicity in Zucker rat sub-chronic fa/fa prediabetic model assessed as serum ALT level at 10 mg/kg, po qd for 31 days measured on day 32 (reference value: 151 +/- 23 U/L); type: organism-based; settings: in vivo, 744 h
Rattus norvegicus [19] = assay: Toxicity in […] model assessed as serum creatinine level at 10 mg/kg, po qd for 31 days measured on day 32 (reference value: 0.55 +/- 0.018 mg/dl); type: organism-based; settings: in vivo, 744 h
Rattus norvegicus [20] = assay: Toxicity in […] chronic ob/ob model assessed as change in body weight at 10 mg/kg, po qd for 28 days measured on day 1 to 28 during compound dosing (reference value: 9.9 +/- 1.27 g); type: organism-based; settings: in vivo, 672 h
Rattus norvegicus [21] = assay: Toxicity in Zucker rat sub-chronic fa/fa prediabetic model assessed as triglyceride level per gram liver at 10 mg/kg, po qd for 31 days measured on day 32 (reference value: 163.4 +/- 8.3 mg); type: organism-based; settings: in vivo, 744 h
Rattus norvegicus [22] = assay: Toxicity in Zucker rat sub-chronic fa/fa prediabetic model assessed as serum AST level at 10 mg/kg, po qd for 31 days measured on day 32 (reference value: 187 +/- 37 U/L); type: organism-based; settings: in vivo, 744 h
Rattus norvegicus [23] = assay: Toxicity in Zucker rat sub-chronic fa/fa prediabetic model assessed as heart weight at 10 mg/kg, po qd for 31 days measured on day 32 (reference value: 1.19 +/- 0.04 g); type: organism-based; settings: in vivo, 744 h
Rattus norvegicus [24] = assay: Toxicity in […] model assessed as serum AST level at 10 mg/kg, po qd for 31 days measured on day 32 (reference value: 180 +/- 26 U/L); type: organism-based; settings: in vivo, 744 h
Rattus norvegicus [25] = assay: Antidiabetic activity in […] chronic ob/ob model assessed as increase in plasma adiponectin level at 10 mg/kg, po qd for 31 days measured on day 32 by ELISA relative to control; type: functional
Rattus norvegicus [26] = assay: Toxicity in […] model assessed as serum ALT level at 10 mg/kg, po qd for 31 days measured on day 32 (reference value: 127 +/- 9 U/L); type: organism-based; settings: in vivo, 744 h
Rattus norvegicus [27] = assay: Toxicity in Zucker rat sub-chronic fa/fa prediabetic model assessed as food intake at 10 mg/kg, po qd for 29 days measured on day 1 to 29 during compound dosing (reference value: 969 +/- 18 g); type: organism-based; settings: in vivo, 696 h
Rattus norvegicus [28] = assay: Toxicity in Zucker rat sub-chronic fa/fa prediabetic model assessed as insulin level per gram pancreas at 10 mg/kg, po qd for 31 days measured on day 32 (reference value: 55.2 +/- 5.5 ug); type: organism-based; settings: in vivo, 744 h

CN(CCOc1ccc(CC2SC(=O)NC2=O)cc1)c1ccccn1 (stereo not drawn) [ROSIGLITAZONE]
Activity (Rattus norvegicus [1]): 33.1 mg/dL | Activity (Rattus norvegicus [2]): 184 mg/dL | Activity (Rattus norvegicus [3]): 20.9 g | Activity (Rattus norvegicus [4]): 617 g | Activity (Rattus norvegicus [5]): 195 mg/dL | Activity (Rattus norvegicus [6]): 7.6 g | Activity (Rattus norvegicus [7]): 213 g | Activity (Rattus norvegicus [8]): 0.54 mg/dL | Activity (Rattus norvegicus [9]): 22.7 g | Activity (Rattus norvegicus [10]): 50.5 g | Activity (Rattus norvegicus [11]): 27.2 mg/dL | Activity (Rattus norvegicus [12]): 1.26 g | Activity (Rattus norvegicus [13]): 141 mg/dL | Activity (Rattus norvegicus [14]): 3.32 g | Activity (Rattus norvegicus [15]): 157.3 g | Activity (Rattus norvegicus [16]): 77 mg/dL | Activity (Rattus norvegicus [17]): 3.93 g | Activity (Rattus norvegicus [18]): 136 U/L | Activity (Rattus norvegicus [19]): 0.41 mg/dL | Activity (Rattus norvegicus [20]): 13 g | Activity (Rattus norvegicus [21]): 102.5 mg | Activity (Rattus norvegicus [22]): 147 U/L | Activity (Rattus norvegicus [23]): 1.37 g | Activity (Rattus norvegicus [24]): 364 U/L | fold change (FC) (Rattus norvegicus [25]): 2.6 | Activity (Rattus norvegicus [26]): 366 U/L | Activity (Rattus norvegicus [27]): 1248 g | Activity (Rattus norvegicus [28]): 90.7 µg
